{"source": "ChEMBL document CHEMBL5046301", "about": "“pH-Responsive Antimicrobial Peptide with Selective Killing Activity for Bacterial Abscess Therapy” (J Med Chem, 2022)", "key": {"Mus musculus [1]": {"test_system": "Mus musculus", "assay": "Antiinflammatory activity in ICR cutaneous abscess mouse model assessed as reduction in IL-2 expression in serum at 5 mg/kg,ip administered twice a day measured after 72 hrs by ELISA (reference value: 1.53 +/ 0.06 10^3pg/ml)", "type": "functional"}, "Pseudomonas aeruginosa [2]": {"test_system": "Pseudomonas aeruginosa", "assay": "Antipseudomonal activity against Pseudomonas aeruginosa ATCC 27853 infected in ICR cutaneous abscess mouse model assessed as reduction in lesion area at 5 mg/kg,ip administered twice a day measured after 72 hrs (reference value: […])", "type": "functional"}, "Staphylococcus aureus [3]": {"test_system": "Staphylococcus aureus", "assay": "Antibacterial activity against methicillin-resistant Staphylococcus aureus ATCC 43300 assessed as inhibition of bacterial growth at pH 6.5 incubated for 24 hrs by NCCLS protocol based method", "type": "functional"}, "Staphylococcus aureus [4]": {"test_system": "Staphylococcus aureus", "assay": "Antibacterial activity against Staphylococcus aureus ATCC 29213 assessed as inhibition of bacterial growth at pH 6.5 incubated for 24 hrs by NCCLS protocol based method", "type": "functional"}, "[5]": {"assay": "Cytotoxicity against mouse RAW264.7 cells assessed as inhibition of cell growth at pH 7.4 measured after 24 hrs by MTT assay", "type": "toxicity, cell-based"}, "Pseudomonas aeruginosa [6]": {"test_system": "Pseudomonas aeruginosa", "assay": "Antimicrobial activity against Pseudomonas aeruginosa ATCC 27853 infected in ICR cutaneous abscess mouse model assessed as reduction in colony forming units at 5 mg/kg,ip administered twice a day measured after 72 hrs (reference value: 5.08 +/ 1.84 10^10 CFU/mL )", "type": "functional"}, "Pseudomonas aeruginosa [7]": {"test_system": "Pseudomonas aeruginosa", "assay": "Induction of morphological changes in Pseudomonas aeruginosa ATCC 27853 assessed as plasma membrane collapse at 2 uM at pH 7.4 incubated for 1 hr by TEM analysis", "type": "functional, organism-based"}, "Salmonella typhimurium [8]": {"test_system": "Salmonella typhimurium", "assay": "Antibacterial activity against Salmonella enterica subsp. enterica serovar Typhimurium C77-31 assessed as inhibition of bacterial growth at pH 6.5 incubated for 24 hrs by NCCLS protocol based method", "type": "functional"}, "Escherichia coli [9]": {"test_system": "Escherichia coli", "assay": "Antibacterial activity against Escherichia coli ATCC 25922 assessed as inhibition of bacterial growth at pH 7.4 incubated for 24 hrs by NCCLS protocol based method", "type": "functional"}, "Pseudomonas aeruginosa [10]": {"test_system": "Pseudomonas aeruginosa", "assay": "Antimicrobial activity against Pseudomonas aeruginosa ATCC 27853 assessed as reduction in bacterial growth at pH 6.5 in presence of MgCl2", "type": "functional"}, "Escherichia coli [11]": {"test_system": "Escherichia coli", "assay": "Antibacterial activity against Escherichia coli ATCC 25922 assessed as inhibition of bacterial growth at pH 6.5 incubated for 24 hrs by NCCLS protocol based method", "type": "functional"}, "Pseudomonas aeruginosa [12]": {"test_system": "Pseudomonas aeruginosa", "assay": "Antimicrobial activity against Pseudomonas aeruginosa ATCC 27853 infected in ICR cutaneous abscess mouse model assessed as complete epidermis structure at 5 mg/kg,ip administered twice a day measured after 3 days by hematoxylin and eosin staining based analysis", "type": "functional, organism-based", "conditions": "time 3.0 day"}, "[13]": {"assay": "Hemolytic activity against human RBC assessed as hemoglobin release at pH 6.5 incubated for 1 hrs", "type": "toxicity, cell-based", "conditions": "erythrocyte, pH 6.5, 1 h"}, "Staphylococcus aureus [14]": {"test_system": "Staphylococcus aureus", "assay": "Antibacterial activity against Staphylococcus aureus ATCC 29213 assessed as inhibition of bacterial growth at pH 7.4 incubated for 24 hrs by NCCLS protocol based method", "type": "functional"}, "Staphylococcus aureus [15]": {"test_system": "Staphylococcus aureus", "assay": "Antibacterial activity against methicillin-resistant Staphylococcus aureus ATCC 43300 assessed as inhibition of bacterial growth at pH 7.4 incubated for 24 hrs by NCCLS protocol based method", "type": "functional"}, "Pseudomonas aeruginosa [16]": {"test_system": "Pseudomonas aeruginosa", "assay": "Induction of morphological changes in Pseudomonas aeruginosa ATCC 27853 assessed as change in intracellular contents at 2 uM at pH 6.5 incubated for 1 hr by TEM analysis", "type": "functional, organism-based"}, "Cell membrane [17]": {"test_system": "Cell membrane", "assay": "Induction of outer membrane permeabilization in Pseudomonas aeruginosa ATCC 27853 assessed as increase in NPN uptake by NPN-dye based fluorescence analysis", "type": "subcellular", "conditions": "dose 1-64 µM"}, "Pseudomonas aeruginosa [18]": {"test_system": "Pseudomonas aeruginosa", "assay": "Induction of morphological changes in Pseudomonas aeruginosa ATCC 27853 assessed as plasma membrane collapse at 2 uM at pH 6.5 incubated for 1 hr by TEM analysis", "type": "functional, organism-based"}, "Pseudomonas aeruginosa [19]": {"test_system": "Pseudomonas aeruginosa", "assay": "Induction of morphological changes in Pseudomonas aeruginosa ATCC 27853 assessed as disruption in cell membrane at 2 uM at pH 7.4 incubated for 1 hr by SEM analysis", "type": "functional, organism-based"}, "Pseudomonas aeruginosa [20]": {"test_system": "Pseudomonas aeruginosa", "assay": "Induction of morphological changes in Pseudomonas aeruginosa ATCC 27853 assessed as change in intracellular contents at 2 uM at pH 7.4 incubated for 1 hr by TEM analysis", "type": "functional, organism-based"}, "[21]": {"assay": "Toxicity in ICR cutaneous abscess mouse model assessed as reduction in epidermal cell apoptosis at 10 mg/kg,sc measured after 24 hrs by TUNEL assay", "type": "organism-based", "conditions": "in vivo"}, "Cell membrane [22]": {"test_system": "Cell membrane", "assay": "Induction of cytoplasmic membrane depolarization in Pseudomonas aeruginosa ATCC 27853 assessed as increase in fluorescence intensity at acidic and alkaline pH by DiSC3-5 dye based fluorescence assay", "type": "subcellular", "conditions": "TDE = time-dependent effect"}, "Pseudomonas aeruginosa [23]": {"test_system": "Pseudomonas aeruginosa", "assay": "Antimicrobial activity against Pseudomonas aeruginosa ATCC 27853 assessed as reduction in bacterial growth at pH 6.5 in presence of NaCl", "type": "functional"}, "Staphylococcus aureus [24]": {"test_system": "Staphylococcus aureus", "assay": "Antibacterial activity against Staphylococcus aureus ATCC 25923 assessed as inhibition of bacterial growth at pH 7.4 incubated for 24 hrs by NCCLS protocol based method", "type": "functional"}, "Mus musculus [25]": {"test_system": "Mus musculus", "assay": "Antiinflammatory activity in ICR cutaneous abscess mouse model assessed as reduction in IL-1beta expression in serum at 5 mg/kg,ip administered twice a day measured after 72 hrs by ELISA (reference value: 9.9 +/ 0.47 10^1pg/ml)", "type": "functional"}, "Lipopolysaccharide (LPS)": {"test_system": "Lipopolysaccharide (LPS)", "assay": "Displacement of BODIPY-TR-cadaverin from Pseudomonas aeruginosa ATCC 27316 Lipopolysaccharide at 1 to 64 uM at pH 6.5 incubated for 1 hr by fluorescence based analysis relative to control", "conditions": "dose 1-64 µM"}, "Cell membrane [26]": {"test_system": "Cell membrane", "assay": "Induction of outer membrane permeabilization in Pseudomonas aeruginosa ATCC 27853 assessed as pH responsive ability by measuring fold increase in NPN uptake at 64 uM by NPN-dye based fluorescence analysis relative to control", "type": "subcellular"}, "[27]": {"test_system": "Staphylococcus epidermidis", "assay": "Antibacterial activity against Staphylococcus epidermidis ATCC 12228 assessed as inhibition of bacterial growth at pH 6.5 incubated for 24 hrs by NCCLS protocol based method", "type": "functional"}, "Pseudomonas aeruginosa [28]": {"test_system": "Pseudomonas aeruginosa", "assay": "Antibacterial activity against Pseudomonas aeruginosa ATCC 27853 assessed as inhibition of bacterial growth at pH 6.5 incubated for 24 hrs by NCCLS protocol based method", "type": "functional"}, "Pseudomonas aeruginosa [29]": {"test_system": "Pseudomonas aeruginosa", "assay": "Induction of morphological changes in Pseudomonas aeruginosa ATCC 27853 assessed as disruption in cell membrane at 2 uM at pH 6.5 incubated for 1 hr by SEM analysis", "type": "functional, organism-based"}, "Pseudomonas aeruginosa [30]": {"test_system": "Pseudomonas aeruginosa", "assay": "Antimicrobial activity against Pseudomonas aeruginosa ATCC 27853 assessed as reduction in bacterial growth at pH 6.5 in presence of FeCl3", "type": "functional, organism-based"}, "Salmonella typhimurium [31]": {"test_system": "Salmonella typhimurium", "assay": "Antibacterial activity against Salmonella typhimurium ATCC 14028 assessed as inhibition of bacterial growth at pH 6.5 incubated for 24 hrs by NCCLS protocol based method", "type": "functional, Salmonella enterica subsp. enterica serovar Typhimurium", "conditions": "Salmonella enterica"}, "Pseudomonas aeruginosa [32]": {"test_system": "Pseudomonas aeruginosa", "assay": "Antimicrobial activity against Pseudomonas aeruginosa ATCC 27853 infected in ICR cutaneous abscess mouse model assessed as reduction in necrotic tissue area in infection site at 5 mg/kg,ip administered twice a day measured after 3 days by hematoxylin and eosin staining based analysis", "type": "functional, organism-based", "conditions": "time 3.0 day"}}, "note": "Calls of active or inactive are those of the source. The rule behind the calls is not given here.", "data": [{"substance": "H-FLEHLIPHVIHGLVHAIHH-NH2", "values": [{"measurement": "Activity", "setting": "Mus musculus [1]", "result": "1.15 10^3pg/ml"}, {"measurement": "Activity", "setting": "Pseudomonas aeruginosa [2]", "result": "2.97 10^1/mm2"}, {"measurement": "MIC", "setting": "Staphylococcus aureus [3]", "result": 64, "unit": "µM"}, {"measurement": "MIC", "setting": "Staphylococcus aureus [4]", "result": "> 64", "unit": "µM"}, {"measurement": "IC50 at 24 h", "setting": "[5]", "result": "> 128", "unit": "µM"}, {"measurement": "Activity", "setting": "Pseudomonas aeruginosa [6]", "result": "2.16 10^9CFU/ml"}, {"measurement": "Activity", "setting": "Pseudomonas aeruginosa [7]", "result": "inactive"}, {"measurement": "MIC", "setting": "Salmonella typhimurium [8]", "result": 8, "unit": "µM"}, {"measurement": "MIC", "setting": "Escherichia coli [9]", "result": "> 64", "unit": "µM"}, {"measurement": "MIC", "setting": "Pseudomonas aeruginosa [10]", "result": 2, "unit": "µM"}, {"measurement": "MIC", "setting": "Escherichia coli [11]", "result": 2, "unit": "µM"}, {"measurement": "Activity", "setting": "Pseudomonas aeruginosa [12]", "result": "Active"}, {"measurement": "MHC10", "setting": "[13]", "result": "> 128", "unit": "µM"}, {"measurement": "MIC", "setting": "Staphylococcus aureus [14]", "result": "> 64", "unit": "µM"}, {"measurement": "MIC", "setting": "Staphylococcus aureus [15]", "result": "> 64", "unit": "µM"}, {"measurement": "Activity", "setting": "Pseudomonas aeruginosa [16]", "result": "Active"}, {"measurement": "Activity", "setting": "Cell membrane [17]", "result": "Dose-Dependent Effect"}, {"measurement": "Activity", "setting": "Pseudomonas aeruginosa [18]", "result": "Active"}, {"measurement": "Activity", "setting": "Pseudomonas aeruginosa [19]", "result": "inactive"}, {"measurement": "Activity", "setting": "Pseudomonas aeruginosa [20]", "result": "inactive"}, {"measurement": "Activity", "setting": "[21]", "result": "Non-Toxic"}, {"measurement": "Activity", "setting": "Cell membrane [22]", "result": "Tde"}, {"measurement": "MIC", "setting": "Pseudomonas aeruginosa [23]", "result": 2, "unit": "µM"}, {"measurement": "MIC", "setting": "Staphylococcus aureus [24]", "result": "> 64", "unit": "µM"}, {"measurement": "Activity", "setting": "Mus musculus [25]", "result": "6.93 10^1pg/ml"}, {"measurement": "Activity", "setting": "Lipopolysaccharide (LPS)", "result": 100, "unit": "%"}, {"measurement": "Activity", "setting": "Cell membrane [26]", "result": 65.9, "unit": "%"}, {"measurement": "MIC", "setting": "[27]", "result": "> 64", "unit": "µM"}, {"measurement": "MIC", "setting": "Pseudomonas aeruginosa [28]", "result": 2, "unit": "µM"}, {"measurement": "Activity", "setting": "Pseudomonas aeruginosa [29]", "result": "Active"}, {"measurement": "Activity", "setting": "Pseudomonas aeruginosa [30]", "result": "Active"}, {"measurement": "MIC", "setting": "Salmonella typhimurium [31]", "result": 16, "unit": "µM"}, {"measurement": "Activity", "setting": "Pseudomonas aeruginosa [32]", "result": "Active"}]}]}
